In patent US20080118573A1, “Use of Heavy Metals in the Treatment of Biofilms” (priority 2004, published 2008):
Converted amounts (≈) assume the structure as drawn. Like-named read-outs stand apart in the source and are kept apart here.

How the values were obtained:
[1] = tested on: Pseudomonas aeruginosa ATCC 27853 planktonic and biofilm cultures; assay type: cell-based; conditions: for Fold Tolerance (MBEC:MBC100) / MBEC / MBC100: LB+B1; for MBEC: biofilm; for MBC100: planktonic; for MIC: rich media (LB+B1), 4 replicates
[2] = tested on: Pseudomonas aeruginosa ATCC 27853 cell populations; assay type: cell-based; conditions: 27 hours exposure
[3] = tested on: Pseudomonas aeruginosa ATCC 27853 planktonic and biofilm cultures; assay type: cell-based; conditions: for Fold Tolerance (MBEC:MBC100) / MBEC / MBC100: MSVP; for MBEC: biofilm; for MIC: minimal media (MSVP), did not change with exposure time, mean ± SD of 28 trials; for MBC100: planktonic
[4] = tested on: Escherichia coli JM109 planktonic and biofilm bacteria; experiment: MBEC-HTP antibiotic susceptibility, E. coli; assay type: cell-based; conditions: CA-MHB, 24 h exposure
Procedure: (§1) Luria-Bertani medium was chosen for two reasons: 1) its established use in studies of metal resistance, and 2) because of the use of rich media in NCCLS testing protocols for antimicrobial resistance. Antibiotic resistance assays were performed using cation-adjusted Mueller-Hinton broth (CA-MHB, BDH Inc.) and subcultures, MBC and MBEC bacterial counts were performed using trypticase soy agar (TSA, Difco).
(§2) The present study used a novel high throughput method for screening biofilm susceptibility to metal cations and oxyanions: the MBEC device (MBEC Bioproducts Inc., Edmonton, Alberta, Canada, http://www.mbec.ca). The MBEC high throughput (MBEC-HTP) assay system consists of a shallow trough into which a plastic lid with 96 pegs fits. This peg lid also fits over a standard 96-well microtitre plate which can subsequently be used to setup serial dilutions of antimicrobial compounds. The bottom half of the MBEC device is a trough that has shallow channels that direct flow of an inoculated suspension over the pegs on the lid.
(§3) The inoculum was standardized to a 1.0 McFarland standard and verified by viable counts. The 1.0 McFarland standard inoculum was diluted 30-fold with growth media, which served as the growth suspension to inoculate the MBECJ device.
(§4) P. aeruginosa was incubated for 9 h, S. aureus for 24 h and E. coli for 24 h to generate approximately equivalent biofilms of 6.0×10^6 cfu/peg. Following the incubation period, growth of biofilm and planktonic cultures in the MBECJ device were discerned and verified by viable cell counts.
(§5) Chloramphenicol (Sigma) was prepared in 50% ethanol and treated identically to the other antibiotics. 10% ethanol was added to the growth controls for chloramphenicol assays. […] Starting with the working solutions, serial two-fold dilutions were made in the wells of a 96-well plate (the challenge plate), leaving the first well of each row as a sterility control and the second as a growth control (i.e. no antibiotic).

[5] = tested on: P. aeruginosa biofilms; conditions: after 100 h of exposure; cited from earlier work
[6] = tested on: Pseudomonas aeruginosa ATCC 27853 planktonic and biofilm bacteria; experiment: MBEC-HTP antibiotic susceptibility, P. aeruginosa; assay type: cell-based; conditions: CA-MHB, 24 h exposure
Procedure: as §1, §2, §3, §4, §5

[7] = tested on: Escherichia coli JM109 planktonic and biofilm bacteria; assay type: cell-based; conditions: LB+B1, 24 h exposure
[8] = tested on: Staphylococcus aureus ATCC 29213 planktonic and biofilm bacteria; assay type: cell-based; conditions: LB+B1, 24 h exposure
[9] = tested on: Pseudomonas aeruginosa 15442; experiment: Synergy matrix assay of polycide versus metals; assay type: cell-based; conditions: adding as little as 16 micrograms per ml of the metal
[10] = tested on: Pseudomonas aeruginosa biofilms; experiment: Metal and antibiotic combination assay; assay type: cell-based; conditions: antibiotic or heavy metal alone; LB+B1; median of 4 replicates
Procedure: Cells were grown to a mean density of 6.0×10^6 cfu/peg in LB+B1 media.
• 1. […] All data are median values based on 4 replicates.

[11] = tested on: Pseudomonas aeruginosa ATCC 27853 planktonic and biofilm bacteria; assay type: cell-based; conditions: LB+B1, 24 h exposure
[12] = P. aeruginosa ATCC 27853 biofilm

Compound: [Cl-].[Cl-].[Co+2] [Co^2+, cobalt (II) chloride]
- Fold Tolerance (MBEC:MBC100) ([1]; exposure time 2 h): 2.7
- Fold Tolerance (MBEC:MBC100) ([1]; exposure time 27 h): 2.0
- MBEC ([1]; exposure time 2 h): ≧280 mM
- MBEC ([1]; exposure time 27 h): ≧280 mM
- MBC100 ([1]; exposure time 2 h): 104 ± 40 mM
- MBC100 ([1]; exposure time 27 h): 140 ± 0 mM
- MIC [1]: 7.6 ± 2.2 mM
- eradication of the biofilm cultures with extended exposure times [2]: complete eradication
- Fold Tolerance (MBEC:MBC100) ([3]; exposure time 2 to 6 h): 2.0
- Fold Tolerance (MBEC:MBC100) ([3]; exposure time 2 h): at least 2
- Fold Tolerance (MBEC:MBC100) ([3]; exposure time 8 h): 1.3
- Fold Tolerance (MBEC:MBC100) ([3]; exposure time 10 h): 1.2
- Fold Tolerance (MBEC:MBC100) ([3]; exposure time 27 h): 1.0
- MBEC ([3]; exposure time 2 to 6 h): ≧278 mM
- MBEC ([3]; exposure time 8 h): 139 ± 0 mM
- MBEC ([3]; exposure time 10 h): 209 ± 80 mM
- MBEC ([3]; exposure time 27 h): 116 ± 36 mM
- MIC [3]: 2.0 ± 0.8 mM
- MBC100 ([3]; exposure time 2 to 6 h): 139 ± 0 mM
- MBC100 ([3]; exposure time 8 h): 104 ± 40 mM
- MBC100 ([3]; exposure time 10 h): 174 ± 70 mM
- MBC100 ([3]; exposure time 27 h): 114 ± 44 mM

Compound: NC[C@H]1O[C@H](O[C@H]2[C@H](O)[C@@H](O[C@H]3O[C@H](CO)[C@@H](O)[C@H](N)[C@H]3O)[C@H](N)C[C@@H]2N)[C@H](N)C[C@@H]1O [Tobramycin]
- MBEC ([4]; E. coli JM109 biofilm): 16 ± 0 µg/mL
- MIC ([4]; Escherichia coli, E. coli JM109, read-out: MIC): 4 µg/mL (≈ 8.56 µM)
- MBC ([4]; Escherichia coli, E. coli JM109 planktonic, read-out: MBC): 8 µg/mL (≈ 17.1 µM)
- log10 reduction in viable cell counts of biofilms [5]: less than 0.5 log10
- MBEC [6, 12]: 112 ± 32 µg/mL
- MIC ([6]; Pseudomonas aeruginosa, ATCC27853, P. aeruginosa ATCC 27853, read-out: MIC): 14 ± 4 µg/mL (≈ 29.9 µM)
- MBC ([6]; Pseudomonas aeruginosa, ATCC27853, P. aeruginosa ATCC 27853 planktonic, read-out: MBC): 28 ± 8 µg/mL (≈ 59.9 µM)

Compound: O.O.O.O.O.O=S(=O)([O-])[O-].[Cu+2] [Cu^2+, cupric sulphate]
- MIC ([7]; E. coli JM109): 4.5 ± 1.4 mM
- MBEC ([7]; E. coli JM109 biofilm): 13 ± 4 mM
- MBC ([7]; E. coli JM109 planktonic): 15 ± 3 mM
- MIC ([8]; S. aureus ATCC 29213): 2.0 ± 0 mM
- MBEC ([8]; S. aureus ATCC 29213 biofilm): 2.0 ± 0 mM
- MBC ([8]; S. aureus ATCC 29213 planktonic): 2.0 ± 0 mM
- effect on the efficacy of the polycide [9]: quadruple
- Fold Tolerance (MBEC:MBC100) ([1]; exposure time 2 h): 4.5
- Fold Tolerance (MBEC:MBC100) ([1]; exposure time 27 h): 1.0
- MBEC ([1]; exposure time 2 h): 72 ± 40 mM
- MBEC ([1]; exposure time 27 h): 16 ± 0 mM
- MBC100 ([1]; exposure time 2 h): 16 ± 0 mM
- MBC100 ([1]; exposure time 27 h): 16 ± 0 mM
- MIC [1]: 12 ± 5 mM
- MBC [10]: 1024 µg/mL
- MBEC [10]: 1024 µg/mL
- MIC [10]: 512 to 1024 µg/mL
- eradication of the biofilm cultures with extended exposure times [2]: complete eradication
- MIC ([11]; P. aeruginosa ATCC 27853): 12 ± 5 mM
- MBEC [11, 12]: 14 ± 4.0 mM
- MBC ([11]; P. aeruginosa ATCC 27853 planktonic): 14 ± 4.0 mM
- Fold Tolerance (MBEC:MBC100) ([3]; exposure time 8 to 10 h): 2.0
- Fold Tolerance (MBEC:MBC100) ([3]; exposure time 4 h): 2.0
- Fold Tolerance (MBEC:MBC100) ([3]; exposure time 6 h): 1.7
- Fold Tolerance (MBEC:MBC100) ([3]; exposure time 27 h): 1.1
- MBEC ([3]; exposure time 8 to 10 h): 32 ± 0 mM
- MBEC ([3]; exposure time 2 h): ≧258 mM
- MBEC ([3]; exposure time 4 h): 64 ± 45 mM
- MBEC ([3]; exposure time 6 h): 36 ± 20 mM
- MBEC ([3]; exposure time 27 h): 21 ± 11 mM
- MIC [3]: 3.8 ± 1.9 mM
- MBC100 ([3]; exposure time 8 to 10 h): 16 ± 0 mM
- MBC100 ([3]; exposure time 2 h): 20 ± 8 mM
- MBC100 ([3]; exposure time 4 h): 32 ± 0 mM
- MBC100 ([3]; exposure time 6 h): 21 ± 14 mM
- MBC100 ([3]; exposure time 27 h): 19 ± 11 mM
